Test [1] addresses T1, E. coli penicillin amidase (Escherichia coli, UniProt P06875). The test is described as follows: pH-shift colorimetric kinetic assay. It is filed as biochemical. The note with it: 5 mM MOPS pH 7.2, 25 °C.
The target in test [2] is T1, E. coli penicillin amidase. The test is described as follows: pH-shift colorimetric kinetic assay. It is filed as biochemical. The following applies: pH 8.4, 10 mM m-nitrophenol, 25 °C, 5 U/ml enzyme.

T1 sequence (P06875 27-235): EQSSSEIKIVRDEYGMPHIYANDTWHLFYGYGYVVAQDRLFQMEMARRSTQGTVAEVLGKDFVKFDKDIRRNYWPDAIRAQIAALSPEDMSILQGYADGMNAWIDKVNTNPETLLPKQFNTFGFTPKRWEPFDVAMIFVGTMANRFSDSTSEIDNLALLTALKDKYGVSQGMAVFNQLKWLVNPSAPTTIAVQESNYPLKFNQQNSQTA
T1 sequence (P06875 290-846): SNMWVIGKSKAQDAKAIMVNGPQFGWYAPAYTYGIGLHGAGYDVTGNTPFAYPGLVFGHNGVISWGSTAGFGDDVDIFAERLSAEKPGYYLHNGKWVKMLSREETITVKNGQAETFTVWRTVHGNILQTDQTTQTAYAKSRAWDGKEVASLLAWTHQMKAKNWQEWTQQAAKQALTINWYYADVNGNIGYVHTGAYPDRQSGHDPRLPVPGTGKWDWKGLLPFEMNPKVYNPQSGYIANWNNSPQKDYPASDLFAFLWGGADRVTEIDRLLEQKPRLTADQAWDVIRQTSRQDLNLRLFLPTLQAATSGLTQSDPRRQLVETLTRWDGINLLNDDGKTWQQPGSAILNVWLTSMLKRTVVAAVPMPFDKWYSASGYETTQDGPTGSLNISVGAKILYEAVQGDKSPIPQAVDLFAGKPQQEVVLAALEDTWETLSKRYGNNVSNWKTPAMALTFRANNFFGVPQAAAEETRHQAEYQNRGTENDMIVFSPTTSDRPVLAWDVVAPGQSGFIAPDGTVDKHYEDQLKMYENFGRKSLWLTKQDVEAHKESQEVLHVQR

For the compound `CC1(C)S[C@@H]2[C@H](NC(=O)Cc3ccccc3)C(=O)N2[C@H]1C(=O)O` [penicillin], the “pH-shift colorimetric kinetic assay (p-nitrophenol)” value in test [1] was “E. coli penicillin amidase and commercial B. cereus β-lactamase enzymes exhibit Michaelis-Menten kinetics with penicillin”.
On to `CC1(C)S[C@H]([C@H](NC(=O)Cc2ccccc2)C(=O)O)N[C@H]1C(=O)O` [benzylpenicilloic acid], for which, in test [2], the “pH-shift colorimetric kinetic assay (m-nitrophenol); LCMS” value is “when both Put1 and E. coli penicillin amidase were incubated with benzylpenicilloic acid as a substrate”.

The values are drawn from paper PMC5964007 (Nature chemical biology, 2018).
